{"source": "patent US20080280996A1", "about": "“Use of Carophyllenes in the Manufacture of Medicaments and Treatment of Bodily Conditions of Inflammation and Inflammatory Pain” (priority 2004, published 2008)", "tested_on": "carrageenin-induced inflammatory nociception in the hind paw", "assay": "Inflammatory nociception induced by carrageenin (von Frey filament)", "type": "in vivo", "conditions": "mice, carrageenin 300 μg per paw intraplantar; alpha-humulene 50 mg/kg orally or paracetamol 600 mg/kg orally, 1 h before; evaluated after 3, 4 and 6 hours", "procedure": "The evaluation methodology used in this test is described by Vaz et al. in J. Pharmacol. Exp. Ther. 278:304-312, 1996. Male mice (25-35 g) were systemically (orally) treated with alpha-humulene, 50 mg/kg, administered 1 hour before the experiment. Animals treated with 0.9% saline solution (0.1 ml/10 g) were used as the control. Another group of animals was treated with paracetamol (600 mg/kg, orally, administered 1 h before the treatment), that was used as positive control. For the induction of inflammatory pain, the animals received an intraplantar injection of 0.05 ml of carrageenin (300 μg per paw) at the plantar surface of the right hind paw. […] The nociception was evaluated with a Von Frey filament (0.4 g) after 3, 4 and 6 hours. […] The filament was applied to the right hind paw, complying with the criteria of (1) the application was perpendicular to the plantar surface, with enough pressure to cause the filament to bend, thus obtaining total pressure; (2) the animals were evaluated when the four paws were touching the screen; (3) the paw withdrawal response was considered when the animal removed the paw entirely from the support screen; (4) each animal was stimulated 10 consecutive times, each stimulation lasting 1 second; (5) each paw withdrawal event was considered as 10% of the response, with 10 withdrawal events corresponding to 100% response. […]"}
{"smiles": "CC(=O)Nc1ccc(O)cc1", "note": "[paracetamol, reference compound]", "values": [{"measurement": "inflammatory nociception (paw withdrawal response to 0.4 g von Frey filament)", "value": "reduced the inflammatory nociception"}]}
